US10669272B2, “Substituted naphthyridinone compounds useful as T cell activators” (BRISTOL-MYERS SQUIBB COMPANY, priority 2018, dated 2020)
Read-outs that look alike come from different tables or passages of the source.

What was measured:
[1] = target: T1, human DGKα (Homo sapiens, UniProt P23743); test: DGKα LIPGLO assay (extruded liposome substrate), in vitro DGK inhibition; type: biochemical; conditions: read-out: DGKa LIPGLO IC50
T1 construct: TVMV protease cleavage site (C); Hexa-His (C); made in house; host or cells: Sf9 insect cells (baculovirus, Bac-to-Bac)
T1 sequence (P23743 with tags, fused parts or gaps): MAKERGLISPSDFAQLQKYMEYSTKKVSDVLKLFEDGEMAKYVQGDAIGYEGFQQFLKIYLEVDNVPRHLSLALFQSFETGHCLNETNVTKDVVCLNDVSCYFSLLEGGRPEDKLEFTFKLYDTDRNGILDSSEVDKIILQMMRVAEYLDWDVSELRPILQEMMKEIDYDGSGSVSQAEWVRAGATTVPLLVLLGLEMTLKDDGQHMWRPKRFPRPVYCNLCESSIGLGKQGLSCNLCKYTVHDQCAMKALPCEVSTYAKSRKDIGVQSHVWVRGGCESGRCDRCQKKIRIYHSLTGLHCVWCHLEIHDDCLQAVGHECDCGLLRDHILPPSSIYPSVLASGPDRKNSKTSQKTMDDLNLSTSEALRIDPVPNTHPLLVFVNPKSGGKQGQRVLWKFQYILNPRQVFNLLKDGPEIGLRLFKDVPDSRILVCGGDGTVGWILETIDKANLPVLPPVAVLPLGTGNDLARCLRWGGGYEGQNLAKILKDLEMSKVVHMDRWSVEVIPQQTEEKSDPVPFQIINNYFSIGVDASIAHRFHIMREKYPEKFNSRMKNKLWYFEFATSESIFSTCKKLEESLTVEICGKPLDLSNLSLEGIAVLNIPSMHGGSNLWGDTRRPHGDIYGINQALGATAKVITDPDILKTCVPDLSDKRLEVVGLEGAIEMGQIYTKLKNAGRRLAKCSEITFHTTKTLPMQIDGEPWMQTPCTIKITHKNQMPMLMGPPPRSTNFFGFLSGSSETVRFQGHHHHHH

[2] = target: T2, human DGKζ (Homo sapiens, UniProt Q13574); test: DGKζ LIPGLO assay (extruded liposome substrate), in vitro DGK inhibition; type: biochemical; conditions: read-out: DGKz LIPGLO IC50
T2 construct: TVMV protease cleavage site (C); Hexa-His (C); made in house; host or cells: Sf9 insect cells (baculovirus, Bac-to-Bac)
T2 sequence (Q13574 with tags, fused parts or gaps isoform Q13574-4): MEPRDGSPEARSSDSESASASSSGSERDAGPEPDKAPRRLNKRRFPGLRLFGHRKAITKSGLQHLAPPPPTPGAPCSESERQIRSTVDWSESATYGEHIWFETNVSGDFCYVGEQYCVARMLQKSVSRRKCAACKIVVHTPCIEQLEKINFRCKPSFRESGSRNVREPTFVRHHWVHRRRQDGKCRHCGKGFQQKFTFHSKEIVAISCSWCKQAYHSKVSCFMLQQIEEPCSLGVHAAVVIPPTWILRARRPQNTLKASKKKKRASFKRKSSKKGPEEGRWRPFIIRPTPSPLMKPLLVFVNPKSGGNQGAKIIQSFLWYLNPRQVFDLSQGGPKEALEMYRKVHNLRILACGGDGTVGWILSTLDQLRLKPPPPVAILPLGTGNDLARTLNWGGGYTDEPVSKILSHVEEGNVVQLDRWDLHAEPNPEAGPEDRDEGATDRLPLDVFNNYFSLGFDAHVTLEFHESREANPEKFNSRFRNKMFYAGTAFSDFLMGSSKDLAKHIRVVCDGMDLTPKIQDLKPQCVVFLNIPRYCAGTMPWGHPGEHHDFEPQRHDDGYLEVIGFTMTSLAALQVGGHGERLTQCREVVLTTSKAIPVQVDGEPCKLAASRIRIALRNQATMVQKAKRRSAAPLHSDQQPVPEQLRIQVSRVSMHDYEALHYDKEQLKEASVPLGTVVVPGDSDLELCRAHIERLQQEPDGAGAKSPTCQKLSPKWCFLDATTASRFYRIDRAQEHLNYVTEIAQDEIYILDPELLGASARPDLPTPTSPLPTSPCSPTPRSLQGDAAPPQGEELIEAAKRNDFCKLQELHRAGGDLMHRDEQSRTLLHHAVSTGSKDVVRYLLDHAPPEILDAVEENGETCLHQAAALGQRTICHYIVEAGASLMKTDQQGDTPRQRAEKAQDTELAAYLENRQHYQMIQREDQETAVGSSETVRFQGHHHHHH

Structure (SMILES)	IC50 ([1]; liposome (LIPGLO) assay) [µM]	IC50 ([2]; liposome (LIPGLO) assay) [µM]	IC50 ([1]; DGKα liposome (LIPGLO) assay) [µM]	IC50 ([2]; DGKζ liposome (LIPGLO) assay) [µM]
CC(C)Oc1cccc(CN2C[C@H](C)N(c3cc(=O)n(C)c4ccc(C#N)nc34)C[C@H]2C)c1 [Example 594]	7	1.4		
Cc1nccc(C(c2ccc(F)cc2)N2CCN(c3c(C#N)c(=O)n(C)c4ccc(C#N)nc34)C[C@H]2C)n1 (stereo partly drawn) [Example 316, 8-((3R)-4-((4-fluorophenyl)(2-methylpyrimidin-4-yl)methyl)-3-methylpiperazin-1-yl)-5-methyl-6-oxo-5,6-dihydro-1,5-naphthyridine-2,7-dicarbonitrile]	2.4	0.93		
CCC(c1ccc(F)c(F)c1)N1C[C@H](C)N(c2cc(=O)n(C)c3ccc(C#N)nc23)C[C@H]1C (single isomer, unassigned) [Example 411]	22	19		
Cc1ccnc(C(c2ccc(Cl)cc2)N2C[C@H](C)N(c3cc(=O)n(C)c4ccc(C#N)nc34)C[C@H]2C)c1 (single isomer, unassigned) [Example 364]	1.6	3.9		
Cc1ncc(C(c2ccc(Cl)cc2)N2CCN(c3c(C#N)c(=O)n(C)c4ccc(C#N)nc34)C[C@H]2C)cn1 (single isomer, unassigned) [Example 413]	12	15		
CC(C)[C@H]1CN(c2c(C#N)c(=O)n(C)c3ccc(Br)nc23)CCN1C(c1ccc(F)cc1)c1ccc(F)cc1 [Example 11, (S)-4-(4-(bis(4-fluorophenyl)methyl)-3-isopropylpiperazin-1-yl)-6-bromo-1-methyl-2-oxo-1,2-dihydro-1,5-naphthyridine-3-carbonitrile]	3.6	240		
COc1cc(F)ccc1C(c1ccc(F)cc1)N1C[C@H](C)N(c2c([N+](=O)[O-])c(=O)n(C)c3ccc(C#N)nc23)C[C@H]1C (single isomer, unassigned) [Example 121]	240	52		
Cc1nccc(C(c2ccc(F)cc2)N2CCN(c3c(C#N)c(=O)n(C)c4ccc(C#N)nc34)C[C@H]2C)n1 (stereo partly drawn) [Example 315, 8-((3R)-4-((4-fluorophenyl)(2-methylpyrimidin-4-yl)methyl)-3-methylpiperazin-1-yl)-5-methyl-6-oxo-5,6-dihydro-1,5-naphthyridine-2,7-dicarbonitrile]	4.1	1.8		
C[C@@H]1CN(c2cc(=O)n(C)c3ccc(C#N)nc23)[C@@H](C)CN1Cc1ccc(OC(F)F)cc1 [Example 588]	0.091	7.4		
Cn1c(=O)cc(N2CCN(C(c3ccc(F)cc3)c3ccc(F)cc3)CC2CF)c2nc(C#N)ccc21 (racemic) [Example 149, 8-(4-(bis(4-fluorophenyl)methyl)-2-(fluoromethyl)piperazin-1-yl)-5-methyl-6-oxo-5,6-dihydro-1,5-naphthyridine-2-carbonitrile]	35	21		
COC(=O)C1CN(C(c2ccc(F)cc2)c2ccc(F)cc2)CCN1c1c(Br)c(=O)n(C)c2ccc(C#N)nc12 (stereo not drawn) [Example 162, Methyl 4-(bis(4-fluorophenyl)methyl)-1-(3-bromo-6-cyano-1-methyl-2-oxo-1,2-dihydro-1,5-naphthyridin-4-yl)piperazine-2-carboxylate]	1.9	2.4		
C[C@@H]1CN(c2cc(=O)n(C)c3ccc(C#N)nc23)[C@@H](C)CN1Cc1cccc2c1N(C)C(=O)CO2 [Example 635]	8	150		
C[C@@H]1CN(c2cc(=O)n(C)c3ccc(C#N)nc23)[C@@H](C)CN1C(c1cccc(F)c1)c1ccc(C(F)(F)F)cn1 (stereo partly drawn) [Example 370, 8-((2S,5R)-4-((3-fluorophenyl)(5-(trifluoromethyl)pyridin-2-yl)methyl)-2,5-dimethylpiperazin-1-yl)-5-methyl-6-oxo-5,6-dihydro-1,5-naphthyridine-2-carbonitrile]	1.1	0.76		
C[C@@H]1CN(c2cc(=O)n(C)c3ccc(C#N)nc23)[C@@H](C)CN1C(c1ccc(F)cc1)C1CCOCC1 (single isomer, unassigned) [Example 388]	8.5	14		

Further lines, results first:

IC50 ([1]; liposome (LIPGLO) assay) [µM]	IC50 ([2]; liposome (LIPGLO) assay) [µM]	IC50 ([1]; DGKα liposome (LIPGLO) assay) [µM]	IC50 ([2]; DGKζ liposome (LIPGLO) assay) [µM]	Structure (SMILES)
0.029	0.78			C[C@@H]1CN(c2cc(=O)n(C)c3ccc(C#N)nc23)[C@@H](C)CN1C(COC(F)F)c1ccc(F)cc1 (single isomer, unassigned) [Example 1188]
		1.9	1.8	C[C@@H]1CN(c2c(C#N)c(=O)n(C)c3ccc(C#N)nc23)CCN1C(c1ccc(F)cc1)c1cccc2c1OC(C)(C)C2 (single isomer, unassigned) [Example 935]
		20	15	CC(c1cccc(C(F)(F)F)c1)N1CCN(c2c(C#N)c(=O)n(C)c3ccc(C#N)nc23)C[C@H]1C (single isomer, unassigned) [Example 972]
1.8	2.7			CC[C@H]1CN(C(c2ccc(C)cc2)c2ccc(Cl)cc2)[C@H](C)CN1c1cc(=O)n(C)c2ccc(C#N)nc12 (single isomer, unassigned) [Example 1121]
10	0.48			CCC(c1ccc(OC(C)(C)C)cc1)N1C[C@H](C)N(c2cc(=O)n(C)c3ccc(C#N)nc23)C[C@H]1C (single isomer, unassigned) [Example 1444]
0.21	0.27			CC[C@H]1CN(C(c2cccc(F)c2)c2ccc(OC)cn2)[C@H](CC)CN1c1cc(=O)n(C)c2ccc(C#N)nc12 (stereo partly drawn) [Example 1047]
		27	20	C[C@@H]1CN(c2c(C#N)c(=O)n(C)c3ccc(C#N)nc23)[C@@H](C)CN1C(c1ccc(F)cc1)c1ccns1 (single isomer, unassigned) [Example 855]
0.009	0.044			CCC(c1ccc(OC(F)(F)F)cc1)N1C[C@H](CC)N(c2cc(=O)n(C)c3ccc(C#N)nc23)C[C@H]1CC (single isomer, unassigned) [Example 1059]
1.4	0.27			CC[C@@H]1CN(c2cc(=O)n(C)c3ccc(C#N)nc23)[C@@H](C)CN1C(CC1CCCCC1)c1ccc(OC(F)(F)F)cc1 (stereo partly drawn) [Example 1196]
		0.055	0.038	C[C@@H]1CN(c2cc(=O)n(C)c3ccc(C#N)nc23)[C@@H](C)CN1C(c1ccc(F)cc1)c1nc(C2CC2)co1 (stereo partly drawn) [Example 776, 8-((2S,5R)-4-((4-cyclopropyloxazol-2-yl)(4-fluorophenyl)methyl)-2,5-dimethylpiperazin-1-yl)-5-methyl-6-oxo-5,6-dihydro-1,5-naphthyridine-2-carbonitrile]
4.6	23			C[C@@H]1CN(c2cc(=O)n(C)c3ccc(C#N)nc23)[C@@H](C)CN1C(c1ccc(F)cc1)c1cnccn1 (single isomer, unassigned) [Example 675]
		5.8	6.6	C[C@@H]1CN(c2cc(=O)n(C)c3ccc(C#N)nc23)[C@@H](C)CN1C(c1ccc(F)cc1)c1nnc(C2CC2)s1 (single isomer, unassigned) [Example 775]
		17	14	C[C@@H]1CN(c2c(C#N)c(=O)n(C)c3ccc(C#N)nc23)[C@@H](C)CN1C(c1ccc(F)cc1)c1cc(C2CC2)on1 (single isomer, unassigned) [Example 869]
